Literature values as cited in patent US20200224165A1, “METHODS AND COMPOSITIONS FOR REJUVENATION” (priority 2016, published 2020).

Settings: without irradiation and chemotherapy

Compound: c1cc(CN2CCCNCCNCCCNCC2)ccc1CN1CCCNCCNCCCNCC1 [AMD3100]
- effectiveness as conditioning for HSCT: not to be sufficiently effective
